The values that follow come from patent publication US7666582B2, “IdeS, an IgG-degrading enzyme of Streptococcus pyogenes” (Hansa Medical Research AB, priority 2001, dated 2010).

Entries after “also recorded” stand apart in the source; their conditions may differ. Where two headings read alike, the source gives them in different places. * marks the point of attachment. code Z = not defined here; CHN2 = [N-]=[N+]=C*

The subject of assay [1] is IdeS. Put plainly: Inhibition of IdeS activity by IgG-binding streptococcal proteins. Type of assay: biochemical, S. pyogenes.
Assay [2] concerns IdeS. Description: Proteinase inhibition assay (IgG cleavage by IdeS, SDS-PAGE). The assay is classed as biochemical, S. pyogenes. The following applies: 30 min preincubation, IdeS 0.3 μg/ml. On the procedure:
Partially purified IdeS (0.3 μg/ml) was incubated with either 20 nM iodoacetic acid, Z-LVG-CHN2 (Björck et al., 1989) at 0.4 mg/ml in 1% DMSO, or E64 (40 μM). The tubes were kept in the dark and incubated for 30 min at room temperature. As controls, IdeS was also kept in phosphate buffered saline (PBS) or in 1% DMSO, the solvent for Z-LVG-CHN2. After 30 min, 5 μl of 10 mg/ml IgG (Sigma) were added, and the volume was adjusted to 100 μl with PBS. Incubation was continued for 60 min at 37° C. The reaction was stopped by the addition of SDS-PAGE sample buffer and samples were analyzed by 12% SDS-PAGE.

Assay [3] concerns S. pyogenes. The note with it: in vitro; cited from earlier work.
For assay [4], the system named is IgG-cleaving activity of S. pyogenes strain AP1 growth medium. Description: Cleavage of IgG in AP1 growth medium with E64 added. The assay is classed as biochemical. The note with it: E64 added to the AP1 growth medium, TH medium with 10% human plasma.
Assay [5] has as its system S. pyogenes. The note with it: in vivo; cited from earlier work.
The target of assay [6] is SpeB (Streptococcus pyogenes, UniProt P0C0J0). The note with it: cited from earlier work.
Assay [7] addresses T1, papain (Carica papaya, UniProt P00784).
T1 sequence (P00784 134-345): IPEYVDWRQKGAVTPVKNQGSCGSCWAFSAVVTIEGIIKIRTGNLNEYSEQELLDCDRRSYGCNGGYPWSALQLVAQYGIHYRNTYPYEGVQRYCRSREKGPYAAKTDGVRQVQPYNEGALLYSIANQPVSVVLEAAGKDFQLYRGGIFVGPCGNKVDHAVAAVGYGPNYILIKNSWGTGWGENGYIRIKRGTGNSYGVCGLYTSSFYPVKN
The note with it: cited from earlier work.

Regarding “protein G: streptococcal protein that binds the Cγ2-Cγ3 interphase region of IgG”, the “inhibition of IdeS activity” value in assay [1] is given as “cannot inhibit IdeS activity”.
In the case of `O=C(O)CI` [iodoacetic acid], in assay [2] (20 nM iodoacetic acid), the “inhibition of the activity of IdeS (IgG cleavage)” value (from here on “inhibition of the activity of IdeS”) is “efficiently inhibited the activity of IdeS”.
As to `CC(C)C[C@H](NC(=O)[C@H]1O[C@@H]1C(=O)O)C(=O)NCCCCN=C(N)N` (relative stereo) [E64, trans-epoxysuccinyl-L-leucylamido-(4-Guanidino) butane], the “inhibition of streptococcal growth” value in assay [3] and in assay [5] was “only Z-LVG-CHN2 inhibited streptococcal growth” each time. Besides, in assay [4], the “inhibition of the cleavage of IgG (31 kDa product)” value was “did not inhibit the cleavage of IgG”. Also, the “inhibition of the proteolytic activity of SpeB” value in assay [6] is given as “efficiently blocked; also recorded: irreversibly block the proteolytic activity of SpeB”. Besides, the “inhibition of the activity of IdeS” value in assay [2] (E64 (40 μM)) is given as “had no effect on the enzyme; also recorded: not affected”.
On to “Z-LVG-CHN2: peptide derivate based on the inhibitory reactive site of cystatin C, carrying a diazomethyl ketone group ({code Z}-Leu-Val-Gly-CHN2; reading uncertain)”, for which, in assay [7], the inhibition of papain entry is “irreversibly inhibit”. Besides, the “inhibition of streptococcal growth” value in assay [3] and in assay [5] was “inhibited streptococcal growth” in each case. In addition, in assay [6], the “inhibition of the proteolytic activity of SpeB” value is listed as “irreversibly inhibit; also recorded: irreversibly block the proteolytic activity of SpeB”. For the same compound, the “inhibition of the activity of IdeS” value in assay [2] (Z-LVG-CHN2 at 0.4 mg/ml in 1% DMSO) is given as “efficiently inhibited the activity of IdeS; also recorded: is inhibited”.
